# Like-named read-outs stand apart in the source and are kept apart here.
# Experiments:
# BRD4(1) = target: T1, BRD4(1) (Homo sapiens, UniProt O60885); assay: Inhibition of tetra-acetylated histone H4 binding to individual BET bromodomains (AlphaScreen); settings: His-tagged BRD4(1) 20 nM, biotinylated tetra-acetylated histone H4 peptide, 30 min incubation; read-out: FRET activity BRD4(1)
# T1 construct: N-terminally His-tagged bromodomains (BRD4(1) at 20 nM and BRD4(2) at 100 nM); made in house; host or cells: E. coli BL21(DE3)
# Method: Proteins were cloned and overexpressed with a N-terminal 6×His tag, then purified by nickel affinity followed by size exclusion chromatography. Briefly, E. coli BL21(DE3) cells were transformed with a recombinant expression vector encoding N-terminally Nickel affinity tagged bromodomains from Brd2, Brd3, Brd4. Cell cultures were incubated at 37° C. with shaking to the appropriate density and induced overnight with IPTG. The supernatant of lysed cells was loaded onto Ni-IDA column for purification. Eluted protein was pooled, concentrated and further purified by size exclusion chromatography. Fractions representing monomeric protein were pooled, concentrated, aliquoted, and frozen at −80° C. for use in subsequent experiments.
# Binding of tetra-acetylated histone H4 peptide (Millipore) and BET bromodomains was confirmed by Amplified Luminescent Proximity Homogenous Assay (AlphaScreen). N-terminally His-tagged bromodomains (BRD4(1) at 20 nM and BRD4(2) at 100 nM) and biotinylated tetra-acetylated histone H4 (10-25 nM) were incubated in the presence of nickel chelate acceptor beads and streptavidin donor beads (PerkinAlmer, 6760000K) added to a final concentration of 2 μg/mL under green light in a white 96 well microtiter plate (Greiner). For inhibition assays, serially diluted compounds were added to the reaction mixtures in a 0.1% final concentrations of DMSO. Final buffer concentrations were 50 mM HEPES, 100 mM NaCl and 0.1% BSA buffer, pH 7.4 and optimized to 30 min incubation time. Assay plates were read at 570 nm on a Synergy H4 Plate Reader (Biotek). IC50 values were determined from a dose response curve.
# MV4-11 cells [1] = assay: Washout proliferation: durability of proliferation inhibition in MV4-11 cells; format: cell-based; settings: Homo sapiens
# Method: FIG. 1 depicts inhibition of proliferation. […] MV4-11 cells were treated for 16 hours after which compounds were removed, cells washed 3 times with media, replaced with media and proliferation was measured at 72 h post washout.
# MV4-11 cells (CRL-9591) were plated at a density of 5×10^4 cells per well in 96 well flat bottom plates and treated with increasing concentrations of compounds or DMSO (0.1%) in IMDM media containing 10% FBS and penicillin/streptomycin. Triplicate wells were used for each concentration and a well containing only media was used as a control. Plates were incubated at 37° C., 5% CO2 for 16 h after which the compounds were removed, replaced with media, and proliferation was measured at 72 hours post washout by adding 100 μL of the Cell Titer Fluor 96 Cell Viability Assay (Promega). After the incubation for 45 min at 37° C. with 5% CO2 fluorescence is read on the Synergy plate reader set at 380-400 nm Ex/505 nm. Percentage of cell viability to DMSO-treated cells was calculated after correcting for background by subtracting the blank well's signal. IC50 values were calculated using the GraphPad Prism software from the dose-dependent inhibition of proliferation.
# BCL2 = assay: Durability of BCL2 expression inhibition after washout in MV4-11 cells; format: cell-based; settings: Homo sapiens
# Method: (§1) MV4-11 cells were treated for 3 hours after which compounds were removed, cells washed with media 3 times, replaced with media; harvest was performed 5 hours post washout and the expression of MYC and BCL2 was determined.
# (§2) MV4-11 cells (CRL-9591) were plated at a density of 2.5×10^4 cells per well in 96 well U-bottom plates and treated with increasing concentrations of test compound or DMSO (0.1%) in IMDM media containing 10% FBS and penicillin/streptomycin, and incubated for […] 37° C. after which the compounds are removed, replaced with media and cells were harvested at 5 hours post washout. Triplicate wells were used for each concentration. Cells were pelleted by centrifugation and harvested using the mRNA Catcher PLUS kit according to manufacturer's instructions. The eluted mRNA isolated was then used in a one-step quantitative real-time PCR reaction, using components of the RNA UltraSense™ One-Step Kit (Life Technologies) together with Applied Biosystems TaqMan® primer-probes for cMYC and Cyclophilin. Real-time PCR plates were run on a ViiA™7 real time PCR machine (Applied Biosystems), data was analyzed, normalizing the Ct values for MYC and BCL2 to an internal control, prior to determining the fold expression of each sample, relative to the control.
# MYC = assay: Durability of MYC expression inhibition after washout in MV4-11 cells; format: cell-based; settings: Homo sapiens
# Method: as §1, §2
# cMYC = assay: Inhibition of cMYC expression in cancer cell lines (MV4-11, real-time PCR); format: cell-based; settings: Homo sapiens, read-out: Myc activity
# Method: MV4-11 cells (CRL-9591) were plated at a density of 2.5×10^4 cells per well in 96 well U-bottom plates and treated with increasing concentrations of test compound or DMSO (0.1%) in IMDM media containing 10% FBS and penicillin/streptomycin, and incubated for 3 h at 37° C. Triplicate wells were used for each concentration. Cells were pelleted by centrifugation and harvested using the mRNA Catcher PLUS kit according to manufacturer's instructions. The eluted mRNA isolated was then used in a one-step quantitative real-time PCR reaction, using components of the RNA UltraSense™ One-Step Kit (Life Technologies) together with Applied Biosystems TaqMan® primer-probes for cMYC and Cyclophilin. Real-time PCR plates were run on a ViiA™7 real time PCR machine (Applied Biosystems), data were analyzed, normalizing the Ct values for cMYC to an internal control, prior to determining the fold expression of each sample, relative to the control.
# MV4-11 cells [2] = assay: Inhibition of cell proliferation in cancer cell lines (MV4-11, CellTiter Aqueous One); format: cell-based; settings: Homo sapiens, read-out: Proliferation activity
# Method: MV4-11 cells (CRL-9591) were plated at a density of 5×10^4 cells per well in 96 well flat bottom plates and treated with increasing concentrations of test compound or DMSO (0.1%) in IMDM media containing 10% FBS and penicillin/streptomycin. Triplicate wells were used for each concentration and a well containing only media was used as a control. Plates were incubated at 37° C., 5% CO2 for 72 h before adding 20 μL of the CellTiter Aqueous One Solution (Promega) to each well and incubating at 37° C., 5% CO2 for an additional 3-4 h. The absorbance was read at 490 nm in a spectrophotometer and the percentage of cell titer relative to DMSO-treated cells was calculated after correcting for background by subtracting the blank well's signal. IC50 values were calculated using the GraphPad Prism software.
# [3] = MV4-11 cells, 3 h incubation, cMYC mRNA
SMILES,IC50 (BRD4(1)) [nM],"IC50 (MV4-11 cells [1]; MV4-11 cells treated 16 h, washed, proliferation measured 72 h post washout, read-out: IC50 of inhibition of proliferation after 72 hours of compound removal) [nM]","IC50 (BCL2; MV4-11 cells treated 3 h, washed, harvested 5 h post washout, read-out: IC50 of BCL2 inhibition at 5 hours post washout) [nM]","IC50 (MYC; MV4-11 cells treated 3 h, washed, harvested 5 h post washout, read-out: IC50 of sustained MYC inhibition at 5 h post washout) [nM]",IC50 (cMYC; [3]) [nM],"IC50 (MV4-11 cells [2]; MV4-11 cells, 72 h incubation) [nM]","IC50 (MV4-11 cells [1]; MV4-11, read-out: IC50 of inhibition of proliferation after 72 hours of compound removal) [nM]","IC50 (BCL2; MV4-11, read-out: IC50 of BCL2 inhibition at 5 hours post washout) [nM]","IC50 (MYC; MV4-11, read-out: IC50 of sustained MYC inhibition at 5 h post washout) [nM]","IC50 (cMYC; MV4-11, 3 h) [nM]","IC50 (MV4-11 cells [2]; MV4-11, 72 h) [nM]"
"C=CC(=O)N(C)c1cnc2nc(N3CCCC3)n(Cc3ccccc3)c2c1 [Example 15, N-(1-Benzyl-2-(pyrrolidin-1-yl)-1H-imidazo[4,5-b]pyridin-6-yl)-N-methylacrylamide]",≤ 300,,,,,,5980,7900,23000,300 to 3000,300 to 3000
"C=CC(=O)N(C)c1cnc2nc(N3CC[C@@H](NC(C)=O)C3)n(Cc3ccccc3)c2c1 [Example 44, (R)—N-(2-(3-Acetamidopyrrolidin-1-yl)-1-benzyl-1H-imidazo[4,5-b]pyridin-6-yl)-N-methylacrylamide]",≤ 300,,,,300 to 3000,3000 to 30000,,,,,
"C=CC(=O)N(C)c1cnc2nc(N3CC[C@@H](CO)C3)n(Cc3ccccc3)c2c1 [Example 45, (R)—N-(1-Benzyl-2-(3-(hydroxymethyl)pyrrolidin-1-yl)-1H-imidazo[4,5-b]pyridin-6-yl)-N-methylacrylamide]",≤ 300,,,,300 to 3000,300 to 3000,,,,,

# More lines, main results first:
IC50 (BRD4(1)) [nM],"IC50 (MV4-11 cells [1]; MV4-11 cells treated 16 h, washed, proliferation measured 72 h post washout, read-out: IC50 of inhibition of proliferation after 72 hours of compound removal) [nM]","IC50 (BCL2; MV4-11 cells treated 3 h, washed, harvested 5 h post washout, read-out: IC50 of BCL2 inhibition at 5 hours post washout) [nM]","IC50 (MYC; MV4-11 cells treated 3 h, washed, harvested 5 h post washout, read-out: IC50 of sustained MYC inhibition at 5 h post washout) [nM]",IC50 (cMYC; [3]) [nM],"IC50 (MV4-11 cells [2]; MV4-11 cells, 72 h incubation) [nM]",SMILES,"IC50 (MV4-11 cells [1]; MV4-11, read-out: IC50 of inhibition of proliferation after 72 hours of compound removal) [nM]","IC50 (BCL2; MV4-11, read-out: IC50 of BCL2 inhibition at 5 hours post washout) [nM]","IC50 (MYC; MV4-11, read-out: IC50 of sustained MYC inhibition at 5 h post washout) [nM]","IC50 (cMYC; MV4-11, 3 h) [nM]","IC50 (MV4-11 cells [2]; MV4-11, 72 h) [nM]"
≤ 300,~50000,~50000,29000,300 to 3000,300 to 3000,"CC(=O)N(C)c1cnc2nc(N3CCCC3)n(Cc3ccccc3)c2c1 [Example 18, N-(1-Benzyl-2-(pyrrolidin-1-yl)-1H-imidazo[4,5-b]pyridin-6-yl)-N-methylacetamide]",,,,,
≤ 300,,,,300 to 3000,300 to 3000,"C=CC(=O)N(C)c1cnc2nc(N3CC[C@H](O)C3)n(Cc3ccccc3)c2c1 [Example 46, (S)—N-(1-Benzyl-2-(3-hydroxypyrrolidin-1-yl)-1H-imidazo[4,5-b]pyridin-6-yl)-N-methylacrylamide]",,,,,
≤ 300,,,,300 to 3000,3000 to 30000,"C=CC(=O)N(C)c1cnc2nc(N3CC(N(C)C)C3)n(Cc3ccccc3)c2c1 [Example 47, N-(1-Benzyl-2-(3-(dimethylamino)azetidin-1-yl)-1H-imidazo[4,5-b]pyridin-6-yl)-N-methylacrylamide]",,,,,
≤ 300,,,,300 to 3000,300 to 3000,"C=CC(=O)N(C)c1cnc2nc(N3Cc4cnn(C)c4C3)n(Cc3ccccc3)c2c1 [Example 48, N-(1-Benzyl-2-(1-methylpyrrolo[3,4-c]pyrazol-5(1H,4H,6H)-yl)-1H-imidazo[4,5-b]pyridin-6-yl)-N-methylacrylamide]",,,,,

# — patent US20190263799A1, “1H-IMIDAZO[4,5-B]PYRIDINYL AND 2-OXO-2,3-DIHYDRO-1H-IMIDAZO[4,5-B]PYRIDINYL HETEROCYCLIC BET BROMODOMAIN INHIBITORS” (ZENITH EPIGENETICS LTD., priority 2015, published 2019)
